Source: PubChem BioAssay AID330 (DTP/NCI, 2004)
Several values for one entry are separate records, joined by “and”; a condition that tells them apart may be missing. Equal values may be shown once. Toxic doses and inconclusive results are not listed. Rule for the calls: active = survival T/C of 150% or more; inactive = T/C below 125% in these data. Square brackets hold non-standard residues; d marks the D form. Peptide text beside a SMILES is read from it. ξ: configuration not given here. Ac5c = NC1(C(=O)O)CCCC1; ξP = O=C(O)C1CCCN1

Test system: P388 leukemia ip, CD2F1 mice, survival T/C
Assay: NCI In Vivo Anticancer Drug Screen. Data for tumor model P388 Leukemia (intraperitoneal) in CD2F1 (CDF1) mice
Settings: endpoint: median survival time, higher = longer survival
Procedure, shortened: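 Mice carrying the transplanted tumor received test compound or vehicle. Survival was recorded in each group, and the value is the treated-group measurement divided by that of the vehicle-treated control group.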

[1] = dose: 25.0 mg/kg/injection, schedule: Q01DX009 (ip), vehicle: saline with Tween-80
[2] = dose: 50.0 mg/kg/injection, schedule: Q01DX009 (ip), vehicle: saline with Tween-80
[3] = dose: 100.0 mg/kg/injection, schedule: Q01DX009 (ip), vehicle: saline with Tween-80
[4] = dose: 200.0 mg/kg/injection, schedule: Q01DX009 (ip), vehicle: saline with Tween-80
[5] = dose: 50.0 mg/kg/injection, schedule: Q01DX005 (ip), vehicle: Klucel (hydroxypropylcellulose) (HPC)
[6] = dose: 100.0 mg/kg/injection, schedule: Q01DX005 (ip), vehicle: Klucel (hydroxypropylcellulose) (HPC)
[7] = dose: 12.5 mg/kg/injection, schedule: Q01DX009 (ip), vehicle: saline with Tween-80
[8] = dose: 50.0 mg/kg/injection, schedule: Q01DX009 (ip), vehicle: saline
[9] = dose: 200.0 mg/kg/injection, schedule: Q01DX009 (ip), vehicle: saline
[10] = dose: 100.0 mg/kg/injection, schedule: Q04DX002 (ip), vehicle: saline with Tween-80
[11] = dose: 200.0 mg/kg/injection, schedule: Q04DX002 (ip), vehicle: saline with Tween-80
[12] = dose: 400.0 mg/kg/injection, schedule: Q04DX002 (ip), vehicle: saline with Tween-80
[13] = dose: 100.0 mg/kg/injection, schedule: Q01DX009 (ip), vehicle: saline
[14] = dose: 50.0 mg/kg/injection, schedule: Q01DX009 (ip), vehicle: Klucel (hydroxypropylcellulose) (HPC)
[15] = dose: 100.0 mg/kg/injection, schedule: Q01DX009 (ip), vehicle: Klucel (hydroxypropylcellulose) (HPC)
[16] = dose: 200.0 mg/kg/injection, schedule: Q01DX009 (ip), vehicle: Klucel (hydroxypropylcellulose) (HPC)

Measured: T/C

OCC[Se][Se]CCO
inactive: dose: 1.25 mg/kg/injection, schedule: Q01DX009 (ip), vehicle: Klucel (hydroxypropylcellulose) (HPC) 103 % of control | dose: 2.5 mg/kg/injection, schedule: Q01DX009 (ip), vehicle: Klucel (hydroxypropylcellulose) (HPC) 100 % of control | dose: 5.0 mg/kg/injection, schedule: Q01DX009 (ip), vehicle: Klucel (hydroxypropylcellulose) (HPC) 103 % of control

Nc1nc2c(ccc3ccccc32)s1
inactive: [1] 115 % of control | [2] 102 % of control and 108 % of control and 97 % of control | [3] 100 % of control and 110 % of control and 93 % of control | [4] 103 % of control and 108 % of control and 93 % of control

COC1/C=C/OC2(C)Oc3c(C)c(O)c4c(c3C2=O)C(=O)C2=C(NC(=NC2)/C(C)=C\C=C\C(C)C(O)C(C)C(O)C(C)C(OC(C)=O)C1C)C4=O (configuration not stated)
inactive: dose: 6.25 mg/kg/injection, schedule: Q04DX003 (ip), vehicle: other 94 % of control | dose: 12.5 mg/kg/injection, schedule: Q04DX003 (ip), vehicle: other 101 % of control | dose: 25.0 mg/kg/injection, schedule: Q04DX003 (ip), vehicle: other 113 % of control | dose: 50.0 mg/kg/injection, schedule: Q04DX003 (ip), vehicle: other 109 % of control | dose: 100.0 mg/kg/injection, schedule: Q04DX003 (ip), vehicle: other 122 % of control

C[C@]12CC[C@@H]3c4ccc(O)cc4CC[C@H]3[C@@H]1CC[C@@H]2NCCCCCCO
inactive: [5] 92 % of control | [6] 97 % of control

CCOC(=O)C1(C(=O)OCC)COC(C)(C)OC1
inactive: [7] 105 % of control | [1] 101 % of control and 97 % of control | [2] 102 % of control and 106 % of control | [3] 106 % of control and 108 % of control | dose: 100.0 mg/kg/injection, schedule: Q04DX003 (ip), vehicle: saline 100 % of control | [4] 98 % of control and 103 % of control | dose: 200.0 mg/kg/injection, schedule: Q04DX003 (ip), vehicle: saline 101 % of control | dose: 400.0 mg/kg/injection, schedule: Q04DX003 (ip), vehicle: saline 100 % of control | dose: 600.0 mg/kg/injection, schedule: Q04DX003 (ip), vehicle: saline 101 % of control

O=C(CBr)N(O)c1ccccc1OCc1ccccc1
inactive: dose: 6.25 mg/kg/injection, schedule: Q01DX001 (ip), vehicle: saline 116 % of control | dose: 12.5 mg/kg/injection, schedule: Q01DX001 (ip), vehicle: saline 98 % of control | dose: 25.0 mg/kg/injection, schedule: Q01DX001 (ip), vehicle: saline 104 % of control

O=C1C2Nc3ccccc3N=C2OC1c1ccccc1 (configuration not stated)
inactive: [5] 96 % of control | [6] 96 % of control | dose: 200.0 mg/kg/injection, schedule: Q01DX005 (ip), vehicle: Klucel (hydroxypropylcellulose) (HPC) 100 % of control

O=C(O)O.[Eu]
inactive: [8] 95 % of control | [9] 93 % of control

CC(=O)N(OC1OC(CO)C(O)C(O)C1O)c1ccc(Oc2ccc(Cl)cc2)cc1 (configuration not stated)
inactive: dose: 60.0 mg/kg/injection, schedule: Q01DX005 (ip), vehicle: Klucel (hydroxypropylcellulose) (HPC) 104 % of control | dose: 120.0 mg/kg/injection, schedule: Q01DX005 (ip), vehicle: Klucel (hydroxypropylcellulose) (HPC) 92 % of control

CCCCCCCCCCCCSC1=CC(=O)C(OC)=C(OC)C1=O
inactive: dose: 0.78 mg/kg/injection, schedule: Q01DX009 (ip), vehicle: other 101 % of control | dose: 1.56 mg/kg/injection, schedule: Q01DX009 (ip), vehicle: other 108 % of control | dose: 3.13 mg/kg/injection, schedule: Q01DX009 (ip), vehicle: other 102 % of control | dose: 6.25 mg/kg/injection, schedule: Q01DX009 (ip), vehicle: other 108 % of control | dose: 6.25 mg/kg/injection, schedule: Q01DX030 (ip), vehicle: saline with Tween-80 101 % of control | dose: 10.0 mg/kg/injection, schedule: Q01DX030 (ip), vehicle: saline with Tween-80 108 % of control | dose: 12.5 mg/kg/injection, schedule: Q01DX009 (ip), vehicle: other 110 % of control | dose: 12.5 mg/kg/injection, schedule: Q01DX030 (ip), vehicle: saline with Tween-80 104 % of control and 108 % of control and 121 % of control | dose: 25.0 mg/kg/injection, schedule: Q01DX009 (ip), vehicle: other 118 % of control | dose: 25.0 mg/kg/injection, schedule: Q01DX030 (ip), vehicle: saline with Tween-80 105 % of control

Cc1nnc(NC(=O)c2cc(=O)c3ccccc3o2)s1
inactive: [10] 99 % of control | [11] 94 % of control | [12] 93 % of control

O=C(O)c1c(-c2ccccc2)sc2ccccc2c1=O
inactive: dose: 100.0 mg/kg/injection, schedule: Q01DX001 (ip), vehicle: saline with Tween-80 99 % of control | dose: 200.0 mg/kg/injection, schedule: Q01DX001 (ip), vehicle: saline with Tween-80 99 % of control | dose: 400.0 mg/kg/injection, schedule: Q01DX001 (ip), vehicle: saline with Tween-80 99 % of control

O=C(N1CCN(c2ccccc2)C1=O)N1CCN(c2ccccc2)C1=O
inactive: [2] 98 % of control | [3] 95 % of control | [4] 91 % of control

CC(=O)c1ccc(O)c(O)c1O
inactive: [13] 103 % of control and 104 % of control | [9] 107 % of control and 120 % of control | dose: 600.0 mg/kg/injection, schedule: Q01DX009 (ip), vehicle: saline 103 % of control and 104 % of control

Sc1ccccc1N=Cc1ccc(C=Nc2ccccc2S)cc1
inactive: [8] 98 % of control | [13] 99 % of control | [9] 97 % of control

CCN(CC)C1=NS(=O)(=O)c2ccccc2C(NN)=C1C
inactive: dose: 6.25 mg/kg/injection, schedule: Q01DX009 (ip), vehicle: Klucel (hydroxypropylcellulose) (HPC) 90 % of control | dose: 12.5 mg/kg/injection, schedule: Q01DX009 (ip), vehicle: Klucel (hydroxypropylcellulose) (HPC) 90 % of control | dose: 25.0 mg/kg/injection, schedule: Q01DX009 (ip), vehicle: Klucel (hydroxypropylcellulose) (HPC) 104 % of control | [10] 92 % of control | [11] 99 % of control | [12] 97 % of control

COc1ccc2c(c1)nc1c([n+]2/N=C(\[O-])CCN(C)C)-c2cccc3cccc-1c23
inactive: [14] 110 % of control | [15] 111 % of control | [16] 116 % of control

C=C(C)C12OC3(c4ccccc4)OC1C1C4OC4(CO)C(O)C4(O)C(=O)C(C)=CC4C1(O3)C(C)C2OC(=O)c1ccccc1 (configuration not stated)
inactive: dose: 0.1 mg/kg/injection, schedule: Q01DX009 (ip), vehicle: saline 91 % of control | dose: 0.2 mg/kg/injection, schedule: Q01DX009 (ip), vehicle: saline 100 % of control | dose: 0.4 mg/kg/injection, schedule: Q01DX009 (ip), vehicle: saline 90 % of control | dose: 0.8 mg/kg/injection, schedule: Q01DX009 (ip), vehicle: saline 96 % of control

CC(C)=CCC(O)/C(C)=C/CC/C(=C/CC/C(C)=C/CO)CO (configuration not stated)
inactive: dose: 3.88 mg/kg/injection, schedule: Q01DX005 (ip), vehicle: Klucel (hydroxypropylcellulose) (HPC) 93 % of control | dose: 7.75 mg/kg/injection, schedule: Q01DX005 (ip), vehicle: Klucel (hydroxypropylcellulose) (HPC) 100 % of control | dose: 15.5 mg/kg/injection, schedule: Q01DX005 (ip), vehicle: Klucel (hydroxypropylcellulose) (HPC) 102 % of control | dose: 31.0 mg/kg/injection, schedule: Q01DX005 (ip), vehicle: Klucel (hydroxypropylcellulose) (HPC) 102 % of control

O=C1CCCC2=C1[Se]C1(O2)C(=O)CCCC1=O
inactive: dose: 12.5 mg/kg/injection, schedule: Q01DX009 (ip), vehicle: saline 102 % of control | dose: 25.0 mg/kg/injection, schedule: Q01DX009 (ip), vehicle: saline 101 % of control | [8] 104 % of control and 107 % of control

CC(=O)OC1N(C(C)=O)C(SC23CC4CC(CC(C4)C2)C3)C(C)=CC1(C)OC(C)=O (configuration not stated)
inactive: [14] 111 % of control | [15] 110 % of control | [16] 105 % of control

Clc1ccc(N=Cc2c3ccccc3cc3ccccc23)c(Cl)c1
inactive: dose: 6.25 mg/kg/injection, schedule: Q01DX009 (ip), vehicle: saline with Tween-80 101 % of control | [7] 101 % of control | [1] 93 % of control

NC1(C(=O)N2CCCC2C(=O)O)CCCC1 (configuration not stated) (H-[Ac5c]-[ξP]-OH)
inactive: dose: 50.0 mg/kg/injection, schedule: Q01DX005 (ip), vehicle: saline 96 % of control | dose: 100.0 mg/kg/injection, schedule: Q01DX005 (ip), vehicle: saline 89 % of control | dose: 200.0 mg/kg/injection, schedule: Q01DX005 (ip), vehicle: saline 108 % of control
